Key:
[1] = target: PI3 Kinase; experiment: PI3K fluorescence polarization assay; format: biochemical; conditions: 25 μM ATP, diC8-PI(4,5)P2 substrate, 1 hour at 25° C.; read-out: PI3 Kinase Median IC50
Method: Nunc 384 well black polypropylene fluorescent plates are used for PI3K assays. Reactions are quenched by the addition of EDTA to a final concentration of 10 mM. Final reaction volumes are 10 μl. […] Reactions are allowed to proceed for one hour at 25° C. After 1 hour, GST-tagged GRP1 (general receptor for phosphoinositides) PH domain fusion protein is added to a final concentration of 100 nM, and BODIPY-TMRI(1,3,4,5)P4 (Echelon) is also added to a final concentration of 5 nM. Final sample volumes are 25 μl with a final DMSO concentration of 0.8%. Assay Plates are read on Perkin-Elmer Envision plate readers with appropriate filters for Tamra [BODIPY-TMRI(1,3,4,5)P4].

[2] = target: T1, human TOR (Homo sapiens, UniProt P42345); experiment: mTOR enzyme assay (DELFIA format, purified FLAG-TOR, His6-S6K substrate); format: biochemical; conditions: 100 μM ATP, 1.25 μM His6-S6K, 2 hours at room temperature; read-out: TOR Kinase Median IC50
T1 construct: FLAG

Compound | IC50 [1] | IC50 [2]
OCc1cccc(-c2nc(N3CCOCC3)c3ncn(C4CCN(Cc5ccccc5F)CC4)c3n2)c1 [Compound 45, (3-{9-[1-(2-fluorobenzyl)piperidin-4-yl]-6-morpholin-4-yl-9H-purin-2-yl}phenyl)methanol] | 42 nM | 160 nM
OCc1cccc(-c2nc(N3CCOCC3)c3ncn(C4CCN(Cc5ccc(F)cc5)CC4)c3n2)c1 [Compound 46, (3-{9-[1-(4-fluorobenzyl)piperidin-4-yl]-6-morpholin-4-yl-9H-purin-2-yl}phenyl)methanol] | 70 nM | 1700 nM
CCCCN1CCC(n2cnc3c(N4CCOCC4)nc(-c4cccc(CO)c4)nc32)CC1 [Compound 48] | 96 nM | 4200 nM
OCc1cccc(-c2nc(N3CCOCC3)c3ncn(C4CCN(Cc5ccc(F)cc5F)CC4)c3n2)c1 [Compound 49, (3-{9-[1-(2,4-difluorobenzyl)piperidin-4-yl]-6-morpholin-4-yl-9H-purin-2-yl}phenyl)methanol] | 44 nM | 2050 nM
OCc1cccc(-c2nc(N3CCOCC3)c3ncn(C4CCN(Cc5cccc(F)c5)CC4)c3n2)c1 [Compound 50, (3-{9-[1-(3-fluorobenzyl)piperidin-4-yl]-6-morpholin-4-yl-9H-purin-2-yl}phenyl)methanol] | 94 nM | 1400 nM
OCc1cccc(-c2nc(N3CCOCC3)c3ncn(C4CCN(Cc5ccco5)CC4)c3n2)c1 [Compound 52, (3-{9-[1-(2-furylmethyl)piperidin-4-yl]-6-morpholin-4-yl-9H-purin-2-yl}phenyl)methanol] | 46 nM | 490 nM
CC(C)(C)OC(=O)N1CCC(n2cnc3c(N4CCOCC4)nc(-c4cccc(O)c4)nc32)CC1 [Compound 57, tert-butyl 4-{2-(3-hydroxyphenyl)-6-morpholino-9H-purin-9-yl}piperidine-1-carboxylate] | 288 nM | 270 nM
COCOc1cncc(-c2nc(N3CCOCC3)c3ncn(C4CCN(C(=O)OC(C)(C)C)CC4)c3n2)c1 [Compound 58, tert-butyl-4-{2-[5-(methoxymethoxy)pyridin-3-yl]-6-morpholin-4-yl-9H-purin-9-yl}piperidine-1-carboxylate] | 2090 nM | > 4000 nM
CC(C)(C)OC(=O)N1CCC(n2cnc3c(N4CCOCC4)nc(-c4cccc(CO)c4)nc32)CC1 [Compound 59, tert-butyl 4-{2-[3-(hydroxymethyl)phenyl]-6-morpholin-4-yl-9H-purin-9-yl}piperidine-1-carboxylate] | 95 nM | 1400 nM
OCc1cccc(-c2nc(N3CCOCC3)c3ncn(C4CCN(Cc5c(F)cc(F)cc5F)CC4)c3n2)c1 [Compound 60, (3-{6-morpholin-4-yl-9-[1-(2,4,6-trifluorobenzyl)piperidin-4-yl]-9H-purin-2-yl}phenyl)methanol] | 194 nM | 3300 nM
OCc1cccc(-c2nc(N3CCOCC3)c3ncn(C4CCN(Cc5ccc(F)nc5)CC4)c3n2)c1 [Compound 61, [3-(9-{1-[(6-fluoropyridin-3-yl)methyl]piperidin-4-yl}-6-morpholin-4-yl-9H-purin-2-yl)phenyl]methanol] | 47 nM | 710 nM
OCc1cccc(-c2nc(N3CCOCC3)c3ncn(C4CCN(Cc5ccc(F)c(F)c5)CC4)c3n2)c1 [Compound 62, (3-{9-[1-(3,4-difluorobenzyl)piperidin-4-yl]-6-morpholin-4-yl-9H-purin-2-yl}phenyl)methanol] | 42 nM | 1200 nM
OCc1cccc(-c2nc(N3CCOCC3)c3ncn(C4CCN(Cc5ccc(Cl)nc5)CC4)c3n2)c1 [Compound 63, [3-(9-{1-[(6-chloropyridin-3-yl)methyl]piperidin-4-yl}-6-morpholin-4-yl-9H-purin-2-yl)phenyl]methanol] | 45 nM | 650 nM
COc1ccc(CN2CCC(n3cnc4c(N5CCOCC5)nc(-c5cccc(CO)c5)nc43)CC2)cn1 [Compound 64, [3-(9-{1-[(6-methoxypyridin-3-yl)methyl]piperidin-4-yl}-6-morpholin-4-yl-9H-purin-2-yl)phenyl]methanol] | 168 nM | > 4000 nM
OCc1cccc(-c2nc(N3CCOCC3)c3ncn(C4CCN(Cc5cncc(F)c5)CC4)c3n2)c1 [Compound 66, [3-(9-{1-[(5-fluoropyridin-3-yl)methyl]piperidin-4-yl}-6-morpholin-4-yl-9H-purin-2-yl)phenyl]methanol] | 177 nM | > 4000 nM
Cc1ccc(CN2CCC(n3cnc4c(N5CCOCC5)nc(-c5cccc(CO)c5)nc43)CC2)s1 [Compound 67, [3-(9-{1-[(5-methyl-2-thienyl)methyl]piperidin-4-yl}-6-morpholin-4-yl-9H-purin-2-yl)phenyl]methanol] | 518 nM | > 4000 nM
OCc1cccc(-c2nc(N3CCOCC3)c3ncn(C4CCN(Cc5ccc[nH]5)CC4)c3n2)c1 [Compound 68, (3-{6-morpholin-4-yl-9-[1-(1H-pyrrol-2-ylmethyl)piperidin-4-yl]-9H-purin-2-yl}phenyl)methanol] | 37 nM | 2500 nM

Compound | IC50 [1] | IC50 [2]
OCc1cccc(-c2nc(N3CCOCC3)c3ncn(C4CCN(Cc5ccc(F)cc5Cl)CC4)c3n2)c1 [Compound 69, (3-{9-[1-(2-chloro-4-fluorobenzyl)piperidin-4-yl]-6-morpholin-4-yl-9H-purin-2-yl}phenyl)methanol] | 77 nM | 1550 nM
OCc1cccc(-c2nc(N3CCOCC3)c3ncn(C4CCN(Cc5ncc[nH]5)CC4)c3n2)c1 [Compound 70, (3-{9-[1-(1H-imidazol-2-ylmethyl)piperidin-4-yl]-6-morpholin-4-yl-9H-purin-2-yl}phenyl)methanol] | 152 nM | 1500 nM
OCc1cccc(-c2nc(N3CCOCC3)c3ncn(C4CCN(Cc5cccc(Br)n5)CC4)c3n2)c1 [Compound 71, [3-(9-{1-[(6-bromopyridin-2-yl)methyl]piperidin-4-yl}-6-morpholin-4-yl-9H-purin-2-yl)phenyl]methanol] | 50 nM | 580 nM
OCc1cccc(-c2nc(N3CCOCC3)c3ncn(C4CCN(Cc5cccc(N6CCOCC6)n5)CC4)c3n2)c1 [Compound 72, [3-(6-morpholin-4-yl-9-{1-[(6-morpholin-4-ylpyridin-2-yl)methyl]piperidin-4-yl}-9H-purin-2-yl)phenyl]methanol] | 99 nM | 1800 nM
OCc1cccc(-c2nc(N3CCOCC3)c3ncn(C4CCN(Cc5c[nH]c6ccc(F)cc56)CC4)c3n2)c1 [Compound 73, [3-(9-{1-[(5-fluoro-1H-indol-3-yl)methyl]piperidin-4-yl}-6-morpholin-4-yl-9H-purin-2-yl)phenyl]methanol] | 30 nM | 1300 nM
OCc1cccc(-c2nc(N3CCOCC3)c3ncn(C4CCN(Cc5cnc6n5CCOC6)CC4)c3n2)c1 [Compound 74, (3-{9-[1-(5,6-dihydro-8H-imidazo[2,1-c][1,4]oxazin-3-ylmethyl)piperidin-4-yl]-6-morpholin-4-yl-9H-purin-2-yl}phenyl)methanol] | 94 nM | 2000 nM
CN(C)CCCOc1ccc(CN2CCC(n3cnc4c(N5CCOCC5)nc(-c5cccc(CO)c5)nc43)CC2)cc1 [Compound 75] | 16 nM | > 4000 nM
Oc1cccc(-c2nc(N3CCOCC3)c3ncn(C4CCN(Cc5ccccn5)CC4)c3n2)c1 [Compound 77, 3-{6-morpholin-4-yl-9-[1-(pyridin-2-ylmethyl)piperidin-4-yl]-9H-purin-2-yl}phenol] | 156 nM | 290 nM
Oc1cccc(-c2nc(N3CCOCC3)c3ncn(C4CCN(Cc5ccc(Cl)nc5)CC4)c3n2)c1 [Compound 78, 3-(9-{1-[(6-chloropyridin-3-yl)methyl]piperidin-4-yl}-6-morpholin-4-yl-9H-purin-2-yl)phenol] | 37 nM | 200 nM
COc1ccc(CN2CCC(n3cnc4c(N5CCOCC5)nc(-c5cccc(O)c5)nc43)CC2)cn1 [Compound 79, 3-(9-{1-[(6-methoxypyridin-3-yl)methyl]piperidin-4-yl}-6-morpholin-4-yl-9H-purin-2-yl)phenol] | 55 nM | 51 nM
Oc1cccc(-c2nc(N3CCOCC3)c3ncn(C4CCN(Cc5ccc(N6CCOCC6)nc5)CC4)c3n2)c1 [Compound 82, 3-(6-morpholin-4-yl-9-{1-[(6-morpholin-4-ylpyridin-3-yl)methyl]piperidin-4-yl}-9H-purin-2-yl)phenol] | 55 nM | 145 nM
CN(C)c1ccc(CN2CCC(n3cnc4c(N5CCOCC5)nc(-c5cccc(O)c5)nc43)CC2)c2ccccc12 [Compound 83, 3-[9-(1-{[4-(dimethylamino)-1-naphthyl]methyl}piperidin-4-yl)-6-morpholin-4-yl-9H-purin-2-yl]phenol] | 83 nM | 360 nM
Oc1cccc(-c2nc(N3CCOCC3)c3ncn(C4CCN(Cc5ccc(F)nc5)CC4)c3n2)c1 [Compound 84, 3-(9-{1-[(6-fluoropyridin-3-yl)methyl]piperidin-4-yl}-6-morpholin-4-yl-9H-purin-2-yl)phenol] | 70 nM | 310 nM
Oc1cccc(-c2nc(N3CCOCC3)c3ncn(CCN4CCCCC4)c3n2)c1 [Compound 85, 3-[6-morpholin-4-yl-9-(2-piperidin-1-ylethyl)-9H-purin-2-yl]phenol] | 163 nM | 9800 nM
OCc1cccc(-c2nc(N3CCOCC3)c3ncn(CCN4CCCCC4)c3n2)c1 [Compound 86, {3-[6-morpholin-4-yl-9-(2-piperidin-1-ylethyl)-9H-purin-2-yl]phenyl}methanol] | 91 nM | 13000 nM
Oc1cncc(-c2nc(N3CCOCC3)c3ncn(C4CCN(Cc5ccccc5)CC4)c3n2)c1 [Compound 87, 5-[9-(1-benzylpiperidin-4-yl)-6-morpholin-4-yl-9H-purin-2-yl]pyridin-3-ol] | 87 nM | 550 nM

— patent US20080233127A1, “IMIDAZOLOPYRIMIDINE ANALOGS AND THEIR USE AS PI3 KINASE AND MTOR INHIBITORS” (Wyeth, priority 2007, published 2008)
